The values below come from patent US20130096105A1, “ArylSulfonamide Based Matrix Metalloprotease Inhibitors” (NOVARTIS AG, priority 2008, published 2013).

The target in one experiment is T1, Gelatinase (MMP-2) (Homo sapiens, UniProt P08253).
T1 sequence (P08253 110-660): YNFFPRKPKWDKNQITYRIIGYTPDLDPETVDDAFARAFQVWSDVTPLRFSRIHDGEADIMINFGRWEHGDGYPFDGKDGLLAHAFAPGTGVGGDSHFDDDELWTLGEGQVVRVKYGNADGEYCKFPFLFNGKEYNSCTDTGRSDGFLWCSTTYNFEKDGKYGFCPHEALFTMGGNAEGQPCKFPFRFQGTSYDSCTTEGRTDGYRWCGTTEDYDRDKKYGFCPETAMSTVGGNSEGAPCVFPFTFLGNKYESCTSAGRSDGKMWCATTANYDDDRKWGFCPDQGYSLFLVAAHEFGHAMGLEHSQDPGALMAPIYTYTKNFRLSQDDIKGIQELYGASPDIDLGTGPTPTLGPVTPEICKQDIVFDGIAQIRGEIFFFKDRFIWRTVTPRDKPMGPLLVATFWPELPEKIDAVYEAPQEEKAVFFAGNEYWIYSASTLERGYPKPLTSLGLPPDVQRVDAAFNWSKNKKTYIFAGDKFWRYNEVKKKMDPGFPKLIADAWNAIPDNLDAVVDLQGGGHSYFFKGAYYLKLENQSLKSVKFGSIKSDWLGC
Briefly: Gelatinase (MMP-2) inhibitory activity, fluorogenic peptide substrate cleavage. Format: biochemical. On the procedure: (§1) Gelatinase (MMP-2) inhibitory activities can be determined as follows: Stock solutions of substrate (MCA-Lys-Pro-Leu-Gly-Leu-Dpa-Ala-Arg-NH2) are prepared in DMSO at a concentration of 1.4 mM. Stock solutions of inhibitors (0.03 μM-3 mM) are also prepared in DMSO. The inhibitors are diluted into the assay solutions, and the controls use an equal volume of DMSO so that the final DMSO concentration from the inhibitor and substrate dilutions in all assays is 1.0%. Assays are performed in an assay buffer (100 mM sodium chloride, 10 μM ZnCl. Sub 2, 10 mM CaCl2, 100 mM Tris-Cl pH7.5, 0.05% Brij-35), containing 1.0% DMSO from the substrate and inhibitor additions. The substrate concentration used in the assays is 5 μM. The assays are carried out at 20-25° C. The fluorescence changes, as a result of substrate cleavage, are monitored using an excitation wavelength of 325 nm and an emission wavelength of 405 nm. The reaction mixtures are added in duplicate into appropriate wells of a 384-well assay plate. The reaction mixtures are preincubated with the inhibitors for 60 minutes The reactions are started by the addition of MMP substrate, and the fluorescence intensity changes are measured after 60 minutes The apparent enzyme activity in the presence of an inhibitor is then compared with that in the absence of any inhibitor to determine the inhibition effect of the inhibitor. These techniques are within the knowledge of one skilled in the art. The inhibition results are expressed as the inhibitor concentrations required to effect 50% inhibition (IC50) of the enzyme activity, as compared with the control (non-inhibited) reactions.

The next experiment addresses Collagenase-3 (MMP-13) (Homo sapiens, UniProt P45452). Briefly: Collagenase-3 (MMP-13) inhibitory activity, fluorogenic peptide substrate cleavage. Format: biochemical. On the procedure: as §1
Collagenase-3 (MMP-13) inhibitory activity is determined as described above. Recombinant pro-collagenase-3 is activated with 1 mM APMA, and stored in the assay buffer after extensive dialysis in the assay buffer.

Read-outs that look alike come from different tables or passages of the source.

As a reminder, the IC50 is the point on the concentration scale where inhibition reaches its midpoint. Consider “2-Chloro-5-(4-thiophen-2-yl-benzoyl)-benzenesulfonamide [Example 39]”, for which the IC50 on Gelatinase (MMP-2) (read-out: MMP02 IC50) is 13300 nM; at Collagenase-3 (MMP-13) (read-out: MMP13 IC50), 9060 nM.
Take `CC(C)COc1ccc(C(=O)c2ccc(Cl)c(S(N)(=O)=O)c2)cc1` [Example 58, 2-Chloro-5-(4-isobutoxy-benzoyl)-benzenesulfonamide]: the values for the IC50 at Gelatinase (MMP-2) (read-out: MMP02 IC50) and on Collagenase-3 (MMP-13) (read-out: MMP13 IC50) were more than 30000 nM and 24200 nM, respectively.
Take `NS(=O)(=O)c1cc(C(=O)c2ccc3c(-c4ccc5[nH]ccc5c4)c[nH]c3c2)ccc1Cl` [Example 129, 5-(1H,1′H-[3,5′]Biindolyl-6-carbonyl)-2-chloro-benzenesulfonamide]: the IC50 on Gelatinase (MMP-2) (read-out: MMP02 IC50) was found to be 2950 nM; at Collagenase-3 (MMP-13) (read-out: MMP13 IC50), 1650 nM.
The like results for `NS(=O)(=O)c1cc(C(=O)c2ccc3c4c([nH]c3c2)C(=O)NCC4)ccc1Cl` [Example 105, 2-Chloro-5-(1-oxo-2,3,4,9-tetrahydro-1H-beta-carboline-7-carbonyl)-benzenesulfonamide] were, in that order, 8000 nM and 9000 nM.
On to `NS(=O)(=O)c1cc(C(=O)c2ccc(OCCCc3ccccc3)cc2)ccc1Cl` [Example 19, 2-Chloro-5-[4-(3-phenyl-propoxy)-benzoyl]-benzenesulfonamide], for which the IC50 at Gelatinase (MMP-2) (read-out: MMP02 IC50) came out at 1580 nM; on Collagenase-3 (MMP-13) (read-out: MMP13 IC50), 1220 nM.
Turning to `CC(C)(C)C(=O)N1CCc2c([nH]c3ccc(C(=O)c4ccc(Cl)c(S(N)(=O)=O)c4)cc23)C1` [Example 106, 2-Chloro-5-[2-(2,2-dimethyl-propionyl)-2,3,4,9-tetrahydro-1H-beta-carbolise-6-carbonyl]-benzenesulfonamide], the values for the half-maximal inhibitory concentration (IC50) on Gelatinase (MMP-2) (read-out: MMP02 IC50) and on Collagenase-3 (MMP-13) (read-out: MMP13 IC50) were more than 2700 nM and 950 nM, respectively.
Regarding `NS(=O)(=O)c1cc(C(=O)c2ccc(C(=O)Nc3ccccc3)cc2)ccc1Cl` [Example 34, 4-(4-Chloro-3-sulfamoyl-benzoyl)-N-phenyl-benzamide], the IC50 at Gelatinase (MMP-2) (read-out: MMP02 IC50) is 2510 nM; at Collagenase-3 (MMP-13) (read-out: MMP13 IC50), 4710 nM.
For `NS(=O)(=O)c1cc(C(=O)c2ccc(N3CCOCC3)cc2)ccc1Cl` [Example 88, 2-Chloro-5-(4-morpholin-4-yl-benzoyl)-benzenesulfonamide], the IC50 on Gelatinase (MMP-2) (read-out: MMP02 IC50) came to 960 nM; at Collagenase-3 (MMP-13) (read-out: MMP13 IC50), 1840 nM.
For the molecule `NS(=O)(=O)c1cc(C(=O)c2ccc3c(c2)[nH]c2ccccc23)ccc1Cl` [Example 102, 5-(9H-Carbazole-2-carbonyl)-2-chloro-benzenesulfonamide], the IC50 at Gelatinase (MMP-2) (read-out: MMP02 IC50) was found to be 1010 nM; on Collagenase-3 (MMP-13) (read-out: MMP13 IC50), 2710 nM.
Turning to `CC1CCCN(c2ccc(C(=O)c3ccc(Cl)c(S(N)(=O)=O)c3)cc2)C1` (centres unmarked) [Example 84, 2-Chloro-5-[4-(3-methyl-piperidin-1-yl)-benzoyl]-benzenesulfonamide], the IC50 on Gelatinase (MMP-2) (read-out: MMP02 IC50) is 1350 nM; on Collagenase-3 (MMP-13) (read-out: MMP13 IC50), 7540 nM.
The like results for `NS(=O)(=O)c1cc(C(=O)c2ccc(Br)cc2)ccc1Cl` [Example 23, 5-(4-Bromo-benzoyl)-2-chloro-benzenesulfonamide] were, in that order, 4150 nM and 950 nM.
`CCCNC(=O)c1ccc(C(=O)c2ccc(Cl)c(S(N)(=O)=O)c2)cc1` [Example 33, 4-(4-Chloro-3-sulfamoyl-benzoyl)-N-propyl-benzamide]: the IC50 on Gelatinase (MMP-2) (read-out: MMP02 IC50) is more than 30000 nM; on Collagenase-3 (MMP-13) (read-out: MMP13 IC50), 2590 nM.
With `Cn1ccc2cc(C(=O)c3ccc(Cl)c(S(N)(=O)=O)c3)ccc21` [Example 114, 2-Chloro-5-(1-methyl-1H-indole-5-carbonyl)-benzenesulfonamide], the IC50 on Gelatinase (MMP-2) (read-out: MMP02 IC50) came to 3310 nM; on Collagenase-3 (MMP-13) (read-out: MMP13 IC50), 3130 nM.
Regarding `NS(=O)(=O)c1cccc(C(=O)c2ccc3c(-c4ccnc(CCCN5CCOCC5)c4)c[nH]c3c2)c1` [Example 14, 3-{3-[2-(3-Morpholin-4-yl-propyl)-pyridin-4-yl]-1H-indole-6-carbonyl}-benzenesulfonamide], the values for the half-maximal inhibitory concentration (IC50) on Gelatinase (MMP-2) (read-out: MMP02 IC50) and at Collagenase-3 (MMP-13) (read-out: MMP13 IC50) were 800 nM and 10 nM, respectively.
For `NS(=O)(=O)c1cc(C(=O)c2ccc(C(=O)NCc3ccccc3)cc2)ccc1Cl` [Example 35, N-Benzyl-4-(4-chloro-3-sulfamoyl-benzoyl)-benzamide], the results for the IC50 at Gelatinase (MMP-2) (read-out: MMP02 IC50) and at Collagenase-3 (MMP-13) (read-out: MMP13 IC50) were 6890 nM and 840 nM, respectively.
With `COc1ccc(C(=O)c2ccc(Cl)c(S(=O)(=O)NCCc3ccccc3)c2)cc1` [Example 12, 2-Chloro-5-(4-methoxy-benzoyl)-N-phenethyl-benzenesulfonamide], the results for the IC50 at Gelatinase (MMP-2) (read-out: MMP02 IC50) and at Collagenase-3 (MMP-13) (read-out: MMP13 IC50) were 9130 nM and 3040 nM, respectively.
The corresponding values for `NS(=O)(=O)c1cc(C(=O)c2ccc(-c3ccc(F)cc3)cc2)ccc1Cl` [Example 65, 2-Chloro-5-(4′-fluoro-biphenyl-4-carbonyl)-benzenesulfonamide] are 1180 nM and 1610 nM.
Turning to `Cc1ccc(C(=O)c2ccc(Cl)c(S(N)(=O)=O)c2)c(Br)c1` [Example 45, 5-(2-Bromo-4-methyl-benzoyl)-2-chloro-benzenesulfonamide], the IC50 at Gelatinase (MMP-2) (read-out: MMP02 IC50) amounted to 53 nM; at Collagenase-3 (MMP-13) (read-out: MMP13 IC50), 80 nM.
As to `NS(=O)(=O)c1cc(C(=O)c2ccc3c(-c4ccnc(CCCN5CCOCC5)c4)c[nH]c3c2)ccc1Cl` [Example 141, 2-Chloro-5-{3-[2-(3-morpholin-4-yl-propyl)-pyridin-4-yl]-1H-indole-6-carbonyl}-benzenesulfonamide], the IC50 was found to be 1100 nM at Gelatinase (MMP-2) (read-out: MMP02 IC50) and 20 nM on Collagenase-3 (MMP-13) (read-out: MMP13 IC50).
As to `Cc1noc(C)c1-c1c[nH]c2cc(C(=O)c3ccc(Cl)c(S(N)(=O)=O)c3)ccc12` [Example 133, 2-Chloro-5-[3-(3,5-dimethyl-isoxazol-4-yl)-1H-indole-6-carbonyl]-benzenesulfonamide], the IC50 on Gelatinase (MMP-2) (read-out: MMP02 IC50) was 23000 nM; on Collagenase-3 (MMP-13) (read-out: MMP13 IC50), 300 nM.
`NS(=O)(=O)c1cc(C(=O)c2ccccc2)ccc1Cl` [Example 49, 5-Benzoyl-2-chloro-benzenesulfonamide]: the IC50 on Gelatinase (MMP-2) (read-out: MMP02 IC50) is more than 30000 nM; on Collagenase-3 (MMP-13) (read-out: MMP13 IC50) it was 24800 nM.
The like results for `Cc1cccc(-c2ccc(C(=O)c3ccc(Cl)c(S(N)(=O)=O)c3)cc2)c1` [Example 77, 2-Chloro-5-(3′-methyl-biphenyl-4-carbonyl)-benzenesulfonamide] were, in that order, 29100 nM and 23100 nM.
With `CN1C(=O)CCC2=C1Cc1cc(C(=O)c3ccc(Cl)c(S(N)(=O)=O)c3)ccc12` [Example 107, 2-Chloro-5-(1-methyl-2-oxo-2,3,4,9-tetrahydro-1H-indeno[2,1-b]pyridine-7-carbonyl)-benzenesulfonamide], the IC50 at Gelatinase (MMP-2) (read-out: MMP02 IC50) came to 27 nM; at Collagenase-3 (MMP-13) (read-out: MMP13 IC50), 69 nM.
For `Cc1ccc(C)n1-c1ccc(C(=O)c2ccc(Cl)c(S(N)(=O)=O)c2)cc1F` [Example 109, 2-Chloro-5-[4-(2,5-dimethyl-pyrrol-1-yl)-3-fluoro-benzoyl]-benzenesulfonamide], the IC50 stood at 21800 nM at Gelatinase (MMP-2) (read-out: MMP02 IC50) and 19900 nM on Collagenase-3 (MMP-13) (read-out: MMP13 IC50).
For `NS(=O)(=O)c1cc(C(=O)c2ccc(N3CCCC3)cc2)ccc1Cl` [Example 80, 2-Chloro-5-(4-pyrrolidin-1-yl-benzoyl)benzenesulfonamide], the IC50 is 55 nM on Gelatinase (MMP-2) (read-out: IC50 (gelatinase MMP-2)), approximately 113 nM at Collagenase-3 (MMP-13) (read-out: IC50 (collagenase-3 MMP-13)) and 113 nM on Collagenase-3 (MMP-13) (read-out: MMP13 IC50).
On to `COc1cc(-c2c[nH]c3cc(C(=O)c4ccc(Cl)c(S(N)(=O)=O)c4)ccc23)c(Cl)cn1` [Example 134, 2-Chloro-5-[3-(5-chloro-2-methoxy-pyridin-4-yl)-1H-indole-6-carbonyl]-benzenesulfonamide], for which the IC50 on Gelatinase (MMP-2) (read-out: MMP02 IC50) came to 23000 nM; at Collagenase-3 (MMP-13) (read-out: MMP13 IC50), 100 nM.
Consider `NS(=O)(=O)c1cc(C(=O)c2ccc3c(-c4cncnc4)c[nH]c3c2)ccc1Cl` [Example 131, 2-Chloro-5-(3-pyrimidin-5-yl-1H-indole-6-carbonyl)-benzenesulfonamide], for which the IC50 on Gelatinase (MMP-2) (read-out: MMP02 IC50) came out at 4000 nM; on Collagenase-3 (MMP-13) (read-out: MMP13 IC50), 195 nM.
For `NS(=O)(=O)c1cc(C(=O)c2cccs2)ccc1Cl` [Example 96, 2-Chloro-5-(thiophene-2-carbonyl)-benzenesulfonamide], the IC50 on Gelatinase (MMP-2) (read-out: MMP02 IC50) turned out to be 10000 nM; on Collagenase-3 (MMP-13) (read-out: MMP13 IC50) it was 14700 nM.
In the case of `CC(C)CCn1ccc2cc(C(=O)c3ccc(Cl)c(S(N)(=O)=O)c3)ccc21` [Example 117, 2-Chloro-5-[1-(3-methyl-butyl)-1H-indole-5-carbonyl]benzenesulfonamide], the values for the IC50 at Gelatinase (MMP-2) (read-out: MMP02 IC50) and at Collagenase-3 (MMP-13) (read-out: MMP13 IC50) were 26700 nM and 23000 nM, respectively.
